# Laboratory results as given in PubChem BioAssay (NCI).
#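 Protocol summary: plate cells (96-well), add compound at 5 concentrations, incubate 48 h, interpolate endpoints linearly. At the GI50, growth is halved. TGI: total growth inhibition.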
# What was measured:
# Test in all cases: NCI anticancer screen, dose series, 48 h
# [1] = test system: MDA-MB-435
# [2] = test system: HS 578T breast
# [3] = test system: OVCAR-8 ovarian
# [4] = test system: MCF7 breast
# [5] = test system: HT29 colon
# [6] = test system: MOLT-4 leukemia
# [7] = test system: TK-10 renal
# [8] = test system: EKVX NSCLC
# [9] = test system: OVCAR-4 ovarian
# [10] = test system: HCC-2998 colon
# [11] = test system: SN12C renal
# [12] = test system: KM12 colon
# [13] = test system: SK-MEL-2 melanoma
# [14] = test system: RPMI-8226 leukemia
# [15] = test system: OVCAR-3 ovarian
# [16] = test system: LOX IMVI melanoma
# [17] = test system: MDA-MB-231 breast
# [18] = test system: SF-539 CNS
# [19] = test system: NCI-H23 lung
# [20] = test system: SK-MEL-28 melanoma
# [21] = test system: 786-0 renal
# [22] = test system: IGROV1 ovarian
# [23] = test system: A549 NSCLC
# [24] = test system: NCI-H460 lung
# [25] = test system: BT-549 breast
# [26] = test system: CAKI-1 renal
# [27] = test system: DU-145 prostate
# [28] = test system: ACHN renal
# [29] = test system: HOP-92 NSCLC
# [30] = test system: NCI-H226 lung
# [31] = test system: HCT-116 colon
# [32] = test system: SR leukemia
# [33] = test system: COLO 205 colon
# [34] = test system: SF-295 CNS
# [35] = test system: T-47D breast
# [36] = test system: OVCAR-5 ovarian
# [37] = test system: HOP-62 NSCLC
# [38] = test system: HL-60(TB) leukemia
# [39] = test system: SNB-19 CNS
# [40] = test system: RXF 393 renal
# [41] = test system: SK-MEL-5 melanoma
# [42] = test system: PC-3 prostate
# [43] = test system: M14 melanoma
# [44] = test system: NCI/ADR-RES ovarian
# [45] = test system: UACC-62 melanoma
# [46] = test system: U251 CNS
# [47] = test system: HCT-15 colon
# [48] = test system: CCRF-CEM leukemia
# [49] = test system: NCI-H522 lung
# [50] = test system: SW-620 colon
# [51] = test system: SF-268 CNS
# [52] = test system: SK-OV-3 ovarian
# [53] = test system: UO-31 renal
# [54] = test system: A498 renal
# [55] = test system: K-562 leukemia
# [56] = test system: UACC-257 melanoma
smiles,measurement,setting,value
COc1ccc(C2NC(=O)c3cc4c(cc3N2)OCO4)cc1 (configuration not stated),GI50,[1],0.215 µM
same,TGI,[1],0.543 µM
same,GI50,[2],1.42 µM
same,TGI,[2],> 100 µM
same,GI50,[3],1.63 µM
same,TGI,[3],> 100 µM
same,GI50,[4],0.339 µM
same,TGI,[4],> 100 µM
same,GI50,[5],0.856 µM
same,TGI,[5],> 100 µM
same,GI50,[6],2.54 µM
same,TGI,[6],> 100 µM
same,GI50,[7],19.3 µM
same,TGI,[7],> 100 µM
same,GI50,[8],2.42 µM
same,TGI,[8],> 100 µM
same,GI50,[9],5.52 µM
same,TGI,[9],> 100 µM
same,GI50,[10],1.07 µM
same,TGI,[10],7.14 µM
same,GI50,[11],0.481 µM
same,TGI,[11],> 100 µM
same,GI50,[12],0.557 µM
same,TGI,[12],> 100 µM
same,GI50,[13],2.84 µM
same,TGI,[13],> 100 µM
same,TGI,[14],> 100 µM
same,GI50,[15],0.791 µM
same,TGI,[15],3.52 µM
same,GI50,[16],0.821 µM
same,TGI,[16],> 100 µM
same,GI50,[17],3.03 µM
same,TGI,[17],> 100 µM
same,GI50,[18],1.01 µM
same,TGI,[18],9.9 µM
same,GI50,[19],1.25 µM
same,TGI,[19],> 100 µM
same,GI50,[20],0.719 µM
same,TGI,[20],> 100 µM
same,GI50,[21],2.38 µM
same,TGI,[21],> 100 µM
same,GI50,[22],4.92 µM
same,TGI,[22],> 100 µM
same,GI50,[23],0.678 µM
same,TGI,[23],> 100 µM
same,GI50,[24],0.341 µM
same,TGI,[24],> 100 µM
same,GI50,[25],16.5 µM
same,TGI,[25],> 100 µM
same,GI50,[26],0.466 µM
same,TGI,[26],> 100 µM
same,GI50,[27],0.807 µM
same,TGI,[27],> 100 µM
same,GI50,[28],4.1 µM
same,TGI,[28],> 100 µM
same,GI50,[29],11.4 µM
same,TGI,[29],> 100 µM
same,GI50,[30],0.389 µM
same,TGI,[30],6.09 µM
same,GI50,[31],0.511 µM
same,TGI,[31],> 100 µM
same,GI50,[32],0.415 µM
same,TGI,[32],> 100 µM
same,GI50,[33],0.408 µM
same,TGI,[33],3.56 µM
same,GI50,[34],0.704 µM
same,TGI,[34],> 100 µM
same,GI50,[35],0.683 µM
same,TGI,[35],> 100 µM
same,GI50,[36],1.51 µM
same,TGI,[36],> 100 µM
same,GI50,[37],1.02 µM
same,TGI,[37],> 100 µM
same,GI50,[38],0.345 µM
same,TGI,[38],1.85 µM
same,GI50,[39],0.966 µM
same,TGI,[39],> 100 µM
same,GI50,[40],0.287 µM
same,TGI,[40],1.61 µM
same,GI50,[41],0.297 µM
same,TGI,[41],50.5 µM
same,GI50,[42],2.81 µM
same,TGI,[42],> 100 µM
same,GI50,[43],0.927 µM
same,TGI,[43],> 100 µM
same,GI50,[44],0.508 µM
same,TGI,[44],3.86 µM
same,GI50,[45],0.571 µM
same,TGI,[45],> 100 µM
same,GI50,[46],0.849 µM
same,TGI,[46],> 100 µM
same,GI50,[47],0.504 µM
same,TGI,[47],> 100 µM
same,GI50,[48],0.868 µM
same,TGI,[48],> 100 µM
same,GI50,[49],1.87 µM
same,TGI,[49],6.58 µM
same,GI50,[50],0.432 µM
same,TGI,[50],> 100 µM
same,GI50,[51],2 µM
same,TGI,[51],> 100 µM
same,GI50,[52],0.499 µM
same,TGI,[52],7.36 µM
same,GI50,[53],13.5 µM
same,TGI,[53],> 100 µM
same,GI50,[54],0.164 µM
same,TGI,[54],2.95 µM
CC(C)(C)OC(=O)N(CCCN)CCCCN,TGI,[1],> 100 µM
same,TGI,[2],> 100 µM
same,TGI,[3],> 100 µM
same,TGI,[4],> 100 µM
same,TGI,[5],> 100 µM
same,TGI,[6],> 100 µM
same,TGI,[7],> 100 µM
same,TGI,[8],> 100 µM
same,TGI,[9],> 100 µM
same,TGI,[10],> 100 µM
same,TGI,[11],> 100 µM
same,TGI,[12],> 100 µM
same,TGI,[13],> 100 µM
same,TGI,[14],> 100 µM
same,TGI,[15],> 100 µM
same,TGI,[17],> 100 µM
same,TGI,[18],> 100 µM
same,TGI,[19],> 100 µM
same,TGI,[20],> 100 µM
same,TGI,[21],> 100 µM
same,TGI,[22],> 100 µM
same,TGI,[55],> 100 µM
same,TGI,[23],> 100 µM
same,TGI,[24],> 100 µM
same,TGI,[25],> 100 µM
same,TGI,[26],> 100 µM
same,TGI,[27],> 100 µM
same,TGI,[28],> 100 µM
same,TGI,[56],> 100 µM
same,TGI,[29],> 100 µM
same,TGI,[30],> 100 µM
same,TGI,[31],> 100 µM
same,TGI,[32],> 100 µM
same,TGI,[33],> 100 µM
same,TGI,[34],> 100 µM
same,TGI,[35],> 100 µM
same,TGI,[36],> 100 µM
same,TGI,[37],> 100 µM
same,TGI,[38],> 100 µM
same,TGI,[39],> 100 µM
same,TGI,[40],> 100 µM
same,TGI,[41],> 100 µM
same,TGI,[42],> 100 µM
same,TGI,[43],> 100 µM
same,TGI,[44],> 100 µM
same,TGI,[45],> 100 µM
same,TGI,[46],> 100 µM
same,TGI,[47],> 100 µM
same,TGI,[48],> 100 µM
same,TGI,[49],> 100 µM
same,TGI,[50],> 100 µM
same,TGI,[51],> 100 µM
same,TGI,[52],> 100 µM
same,TGI,[53],> 100 µM
same,TGI,[54],> 100 µM
